Data reported in the supplement of paper PMC10307832.

Experiments:
Test in all cases: relative viability (nuclei count vs DMSO), 5 days (fraction); higher = more cells survive
RO-3306 + Dasatinib = compound: C1=CC2=C(C=CC(=C2)C=C3C(=O)NC(=NCC4=CC=CS4)S3)N=C1 [RO-3306] + Cc1nc(Nc2ncc(C(=O)Nc3c(C)cccc3Cl)s2)cc(N2CCN(CCO)CC2)n1 [Dasatinib] (partner 0.075 µM)
How it was run: (§1)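 Lung cancer cell lines, seeded in 1536-well plates, were treated the following day by pin tool with a single drug or with five library-drug doses (not always all listed) in √10 steps on top of a fixed anchor-drug dose. Cells were fixed and nuclei stained in one step after 5 days, and nuclei were counted. Relative viability is the nuclei count for treated wells divided by that for vehicle wells, reported as medians of duplicate plates.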

RO-3306 + Decitabine = compound: C1=CC2=C(C=CC(=C2)C=C3C(=O)NC(=NCC4=CC=CS4)S3)N=C1 [RO-3306] + Nc1ncn([C@H]2C[C@H](O)[C@@H](CO)O2)c(=O)n1 [Decitabine] (partner 2 µM)
How it was run: as §1

[1] = compound: O=S(=O)(c1ccccc1)N(CC(F)(F)F)c1ccc(C(O)(C(F)(F)F)C(F)(F)F)cc1 + CC1(C)CCC(c2ccc(Cl)cc2)=C(CN2CCN(c3ccc(C(=O)NS(=O)(=O)c4ccc(N[C@H](CCN5CCOCC5)CSc5ccccc5)c(S(=O)(=O)C(F)(F)F)c4)cc3)CC2)C1 [Navitoclax] (partner 0.5 µM)
How it was run: as §1

[2] = compound: O=S(=O)(c1ccccc1)N(CC(F)(F)F)c1ccc(C(O)(C(F)(F)F)C(F)(F)F)cc1 + CS(=O)(=O)CCNCc1ccc(-c2ccc3ncnc(Nc4ccc(OCc5cccc(F)c5)c(Cl)c4)c3c2)o1 [Lapatinib] (partner 2 µM)
How it was run: as §1

[3] = compound: O=S(=O)(c1ccccc1)N(CC(F)(F)F)c1ccc(C(O)(C(F)(F)F)C(F)(F)F)cc1 + O=C(CCCCCCC(=O)Nc1ccccc1)NO [Vorinostat] (partner 1 µM)
How it was run: as §1

Cell Line | relative viability (RO-3306 + Dasatinib; first compound 0.01 µM) | relative viability (RO-3306 + Dasatinib; first compound 0.03162 µM) | relative viability (RO-3306 + Dasatinib; first compound 0.1 µM) | relative viability (RO-3306 + Dasatinib; first compound 0.3162 µM) | relative viability (RO-3306 + Dasatinib; first compound 1 µM) | relative viability (RO-3306 + Decitabine; first compound 0.01 µM) | relative viability (RO-3306 + Decitabine; first compound 0.03162 µM) | relative viability (RO-3306 + Decitabine; first compound 0.1 µM) | relative viability (RO-3306 + Decitabine; first compound 0.3162 µM) | relative viability (RO-3306 + Decitabine; first compound 1 µM) | relative viability ([1]; first compound 0.8 µM) | relative viability ([1]; first compound 2.53 µM) | relative viability ([1]; first compound 8 µM) | relative viability ([2]; first compound 0.8 µM) | relative viability ([2]; first compound 2.53 µM) | relative viability ([2]; first compound 8 µM) | relative viability ([3]; first compound 0.8 µM) | relative viability ([3]; first compound 2.53 µM) | relative viability ([3]; first compound 8 µM)
NCI-H2170 | 0.492 | 0.585 | 0.57 | 0.621 | 0.456 | 0.473 | 0.433 | 0.471 | 0.458 | 0.486 | 0.715 | 0.681 | 0.547 | 0.276 | 0.299 | 0.288 | 0.863 | 0.695 | 0.761
NCI-H441 | 0.499 | 0.392 | 0.657 | 0.485 | 0.709 | 0.216 | 0.211 | 0.253 | 0.277 | 0.244 | 0.411 | 0.604 | 0.613 |  |  |  | 0.464 | 0.85 | 0.781
NCI-H2347 | 0.296 | 0.285 | 0.285 | 0.284 | 0.283 | 0.643 | 0.597 | 0.592 | 0.574 | 0.645 | 0.955 | 0.921 | 0.582 | 1.02 | 1.03 | 0.963 | 0.695 | 0.52 | 0.548
NCI-H2009 | 0.279 | 0.267 | 0.265 | 0.293 | 0.277 | 0.385 | 0.373 | 0.351 | 0.382 | 0.371 | 0.965 | 1 | 0.938 | 0.922 | 0.804 | 0.844 | 0.707 | 0.614 | 0.648
NCI-H1915 | 0.341 | 0.312 | 0.288 | 0.329 | 0.253 | 0.245 | 0.262 | 0.252 | 0.239 | 0.251 | 0.881 | 0.81 | 0.786 | 1.05 | 0.995 | 1.02 | 0.51 | 0.568 | 0.499
EMC-BAC-2 | 0.337 | 0.522 | 0.329 | 0.326 | 0.304 | 1.1 | 0.915 | 0.963 | 0.954 | 0.972 | 1.25 | 1.21 | 1.13 | 0.975 | 0.864 | 0.904 | 0.336 | 0.296 | 0.467
Calu-6 |  |  |  |  |  |  |  |  |  |  | 0.796 | 0.823 | 0.647 | 0.945 | 0.901 | 0.966 |  |  | 
NCI-H2126 | 0.663 | 0.622 | 0.58 | 0.523 | 0.542 | 0.528 | 0.561 | 0.637 | 0.586 | 0.57 | 0.892 | 0.824 | 0.877 | 0.868 | 0.791 | 0.905 | 0.89 | 0.684 | 0.723
SW 900 | 0.505 | 0.538 | 0.658 | 0.859 | 0.542 | 0.45 | 0.425 | 0.42 | 0.404 | 0.549 |  |  |  |  |  |  | 0.498 | 0.498 | 0.699
NCI-H2342 | 0.37 | 0.306 | 0.319 | 0.289 | 0.303 | 0.746 | 0.654 | 0.755 | 0.773 | 0.673 |  |  |  |  |  |  | 0.8 | 0.841 | 0.741
ABC-1 | 0.644 | 0.614 | 0.483 | 0.458 | 0.531 | 0.953 | 0.904 | 0.828 | 1.03 | 1.06 |  |  |  | 1.45 | 1.21 | 1.26 |  | 0.882 | 0.912
NCI-H1648 |  |  |  |  |  | 0.545 |  | 0.357 | 0.47 | 0.472 |  |  |  |  |  |  | 0.41 | 0.387 | 0.312
NCI-H522 | 0.895 | 0.854 | 0.82 | 0.823 | 0.846 | 0.736 | 0.544 | 0.712 | 0.775 | 0.638 |  |  |  |  |  |  | 0.833 | 0.973 | 0.959
NCI-H2228 | 0.569 | 0.435 | 0.47 | 0.562 | 0.453 |  |  |  |  |  | 0.839 | 0.89 | 0.713 | 1.32 | 0.964 | 1.5 | 0.62 | 0.427 | 0.644
EBC-1 |  |  |  |  |  |  |  |  |  |  | 0.447 | 0.402 | 0.356 | 0.307 | 0.353 | 0.337 |  |  | 
NCI-H1623 | 0.474 | 0.504 | 0.525 | 0.555 | 0.52 |  |  |  |  |  |  |  |  |  |  |  |  |  | 
NCI-H1792 | 1.03 |  | 0.752 | 0.814 | 0.55 | 0.702 |  | 0.47 | 0.606 | 0.481 | 0.798 | 0.559 | 0.474 | 0.932 | 0.783 | 0.665 |  |  | 
A549 |  |  |  |  |  | 0.284 |  | 0.245 | 0.254 | 0.36 | 1.34 | 1.12 | 0.97 | 0.949 | 0.772 | 0.715 |  |  | 
NCI-H1703 |  |  |  |  |  |  |  |  |  |  | 0.926 | 0.634 | 0.7 | 1.21 | 0.749 | 0.906 |  |  | 
NCI-H650 | 0.429 | 0.421 | 0.393 | 0.479 | 0.421 | 0.292 | 0.33 | 0.283 | 0.259 | 0.352 |  |  |  | 1.24 | 0.804 | 1.12 | 0.368 | 0.36 | 0.359
IA-LM |  |  |  |  |  |  |  |  |  |  | 0.765 | 0.696 | 0.899 | 0.903 | 0.68 | 0.752 | 0.917 | 0.757 | 0.553
NCI-H661 | 0.834 | 0.769 | 0.828 | 0.814 | 0.799 | 0.589 | 0.507 | 0.525 | 0.581 | 0.585 |  |  |  | 0.606 | 0.466 | 0.465 | 0.828 | 0.783 | 0.821
NCI-H1563 | 0.413 | 0.526 | 0.415 | 0.48 | 0.451 |  |  |  |  |  |  |  |  | 0.85 | 0.899 | 0.761 |  |  | 
